Results on 16 substances are retold here after US20240368668A1, “SUBSTRATES AND BIOMARKERS OF ADAMTS7” (The Broad Institute, Inc., priority 2021, published 2024).

In the first assay the test system is mouse ADAMTS7. The experiment in a line: TMT10 TAILS N-terminomics, HUVEC experiment (process replicates, trypsin/AspN digest). It is filed as cell-based, human. Particulars: HUVEC TAILS HC; log fold change of N-terminal peptide, Ad-mADAMTS7 WT over EQ. An excerpt:
ADAMTS7 Expression, Cell Culture and Preparation of the Secreted Proteins—Full-length mouse Adamts7 1-1857 (Uniprot Q68SA9, WT or E373Q catalytic mutant) with a carboxyl terminal 3xFLAG tag was used to generate custom adenoviruses as previously described. Adeno-CMV-Luciferase (Ad-Luc) from Vector Biolabs was used as a negative control. Human Coronary Artery Smooth Muscle Cells (HCA-SMC) were obtained from Lonza and expanded in Lonza SmGM-2 media in 15 cm tissue culture plates. Twenty-four hours before media collection, near confluent plates were transduced with 50 MOI adenovirus and switched to Lonza Basal SM media with volumes of 20 ml per 15 cm plate. Expression of the Flag tagged ADAMTS7 was confirmed from the media using western blot and detected using the anti-Flag M2-HRP antibody (Sigma, A8592). Collected media was processed by adding protease inhibitors (1 mM EDTA and 1 mM PMSF) and clarified by 500 g×5 min spin at 4 C to pellet cell debris. Cell media supernatants were then passed through a 0.22 um filter and kept chilled. Processed media was then concentrated 50-100× using 3 kDa Centricon Plus-70 filter unit, spun at 3,500 g×60 min at 4 C. Approximately 10% of the processed, concentrated media was set aside for total secretome proteolytic analysis. The remaining 90% of the processed, concentrated media was buffer exchanged into 50 mM HEPES pH 8.0, 150 mM NaCl (2×50 ml) using the 3 kDa Centricon Plus-70 filter unit and concentrated to >2 mg/ml to serve as input for the TAILS experiment. Secretome and TAILS input samples were stored at −80° C.
For the first experiment, referred to as SMC1, 120 ml of media from 6×15 cm dishes was pooled from each condition (Luc, WT, EQ) and processed to produce three separate inputs for the TAILS experiment. Luc, WT and EQ inputs from the SMC1 experiment were each divided into triplicate 400 ug samples to generate technical replicate TAILS data. For the second experiment, referred to as SMC2, media was processed separately in triplicate for each condition (Luc1, Luc2, Luc3, WT1, WT2, WT3, EQ1, EQ2, EQ3) using 60 ml of media from 3×15 cm dishes for each process replicate. Inputs from the SMC2 experiment used process replicates of 300 ug each to generate TAILS data. The third experiment used input from cultured Human umbilical vein endothelial cells (HUVEC) from Lifeline Cell Technology grown in VascuLife Media and transduced in Lifeline Basal EC (+bFGF2 10 ng/ml). The HUVEC experiment used the same strategy as the SMC2 experiment, with 40 ml of media from 2×15 cm dishes for each process replicate and used 200 ug each to generate TAILS data. Inputs for process replicate experiments were restricted to the lowest concentration from the 9 parallel samples for SMC2 or HUVEC.
TMT10 isotopic labeling and negative selection of non-labeled peptides-Sample preparation was performed based on the TAILS protocol from the Overall lab with some modifications. From a single experiment, nine parallel protein samples in 50 mM HEPES pH 8.0, 150 mM NaCl were separately denatured with guanidinium chloride (Sigma, G4505) to reach a final concentration of 2.5M guanidinium chloride and 250 mM HEPES and incubated at 65° C. for 15 min. Reduction was achieved through addition of tris(2-carboxylethyl) phosphine (TCEP) at a final concentration of […] and incubated at 65° C. for 45 min. Alkylation reaction was performed with addition of iodoacetamide (IAA, Sigma, A3221) to a final concentration of 10 mM IAA for 15 min at room temperature in the dark. Following denaturation, reduction and alkylation steps, ten percent of each of the nine parallel protein samples was removed and combined to serve as a pooled reference. Isobaric tags were added to free amine groups using the TMT10plex Isobaric Mass Tagging Kit (ThermoFisher, 90113) with TMT channels randomly assigned to the nine samples and TMT 131 assigned to the pooled reference. […]
Consider “AEBP1_37 (FLEGFLSELEPEPR; listed as Homo sapiens)”, for which the logFC.mWT.over.mEQ was found to be 4.34.

As to “EFEMP1_124 (AVAGPEMQTGR; listed as Homo sapiens)”, the logFC.mWT.over.mEQ is 3.31.

Regarding “FBN1_29 (LEAGNVKETR; listed as Homo sapiens)”, the logFC.mWT.over.mEQ is reported as 3.91. In turn, “FLNA_1285 (LTQTGGPHVKAR; listed as Homo sapiens)” registered a logFC.mWT.over.mEQ of 3.81. Still for that read-out and setting: the same measure for “FN1_36 (MVQPQSPVAVSQSKPGCYDNGKHYQINQQWER; listed as Homo sapiens)”: 3.45; for “FN1_40 (QSPVAVSQSKPGCYDNGKHYQINQQWER; listed as Homo sapiens)”: 2.96; for “FN1_886 (NQESTPVVIQQETTGTPR; listed as Homo sapiens)”: 2.04. Still for that read-out and setting: with “FN1_1143 (LTPGVEYVYTIQVLR; listed as Homo sapiens)” the figure was 3.68.

“FN1_1656 (SSSPVTGYR; listed as Homo sapiens)” displayed a logFC.mWT.over.mEQ of 1.63. Same read-out and setting: with “HSPG2_2331 (ANLAYPAGSTQPIR; listed as Homo sapiens)” the figure was 1.73. Same read-out and setting: the same measure for “IGFBP7_101 (AAGGPGVSGVCVCKSR; listed as Homo sapiens)”: 1.89; for “LOXL2_37 (FQQPAPEYHQPQAPANVAKIQLR; listed as Homo sapiens)”: 3.48. Same read-out and setting: the same measure for “LOX_124 (WFQAGYSTSR; listed as Homo sapiens)”: 3.35; for “LTBP1_393 (LTATNFR; listed as Homo sapiens)”: 3.33.

The assay is the same for the next values; noted with them: HUVEC experiment; log fold change, mouse ADAMTS7 WT over EQ.
In the case of “EFEMP1_125 (VAGPEMQTGR; listed as Homo sapiens)”, the “HUVEC logFC.mWT.over.mEQ” value was found to be 2.45. Still for that read-out and setting: with “FN1_886 (NQESTPVVIQQETTGTPR; listed as Homo sapiens)” the figure was 3.68; with “HSPG2_275 (LLPGSVR; listed as Homo sapiens)”, 0.77.
